Source: patent US9783513B2, “STAT3 inhibitors and their anticancer use” (Ohio State Innovation Foundation, priority 2012, dated 2017)
“Also recorded” adds a separate entry of the source.

What was measured:
[1] = tested on: IL-6 induced STAT3 phosphorylation; assay: Western blot, IL-6 induced STAT3 phosphorylation; type: cell-based, human
Procedure: (§1) RH30 cells were treated with DMSO, LY-5 (0.25-1 μM) and LY-3 (0.5-2.5 μM) prepared as a 20 mM stock solution in sterile DMSO at 60% to 80% confluence in the presence of 10% FBS for 24 hours. The sarcoma cell line EW8 was treated with DMSO and LY-5 (0.5-2.5 μM) prepared as a 20 mM stock solution in sterile DMSO at 60% to 80% confluence in the presence of 10% FBS for 24 hours. MCF-7 cells and DAOY cells were treated with DMSO, 25-50 ng/ml of IL-6, LY-5 (0.25-1 μM) or LY-3 (0.5-2.5 μM) prepared as a 20 mM stock solution in sterile DMSO, protein expressions of P-STAT3 (Tyr705) and STAT3 were tested. DAOY cells were treated with DMSO, 50 ng/ml of IFN-γ, LY-5 (1-5 μM) prepared as a 20 mM stock solution in sterile DMSO, protein expressions of P-STAT3 (Tyr705) and STAT3 were tested. MCF-7 cells were treated with DMSO, 50 ng/ml of OSM, LY-5 (1-2.5 μM) or LLL12 (1-2.5 μM) prepared as a 20 mM stock solution in sterile DMSO, protein expressions of P-STAT3 (Tyr705), P-STAT1, P-STAT5, P-ERK (T202/Y204), P-AKT, STAT3 and STAT1 were tested.
The cells were harvested and lysed in cold radioimmunoprecipitation assay (RIPA) lysis buffer containing […] and phosphatase inhibitor cocktail, and were subjected to SDS-PAGE. Then they were transferred to PVDF membrane. Membranes were probed with primary antibodies (1:1,000) and horseradish peroxidase (HRP)-conjugated secondary antibody (1:10,000) (Cell Signaling Technology, Beverly, Mass.). Membranes were analyzed using Enhanced Chemiluminescence Plus reagents and scanned with the Storm Scanner (Amersham Pharmacia Biotech, Inc., Piscataway, N.J.).
MCF-7 breast cancer cells were seeded in 10 cm plates and allowed to adhere overnight. The following day, the cells were serum-starved. The cells were then left untreated or were treated with LY-5 (0.25-1 μM) and LY-3 (0.5-2.5 μM) prepared as a 20 mM stock solution in sterile DMSO or DMSO. After 5 hours, the untreated and LY-5 and LY-3 treated cells were stimulated by IL-6 (25 ng/mL). The cells were harvested after 30 minutes and analyzed by Western blot. DAOY medulloblastoma cancer cells were seeded in 10 cm plates and allowed to adhere overnight. The following day, the cells were serum-starved. The cells were then left untreated or were treated with LY-5 (1-5 μM) prepared as a 20 mM stock solution in sterile DMSO or DMSO. After 2 hours, the untreated and LY-5 treated cells were stimulated by IL-6 (25 ng/mL). The cells were harvested after 30 minutes and analyzed by Western blot.

STAT5 = assay: Western blot, STAT5 after OSM stimulation; type: cell-based, human; details: MCF-7; 1 and 2.5 μM; OSM 50 ng/mL
Procedure: as §1
MCF-7 breast cancer cells were seeded in 10 cm plates and allowed to adhere overnight. The following day, the cells were serum-starved. The cells were then left untreated or were treated with LY-5 and LLL12 (1 μM and 2.5 μM) prepared as a 20 mM stock solution in sterile DMSO or DMSO. […] The cells were harvested after 30 minutes and analyzed by Western blot.

HUVEC = HUVEC migration assays (wound-healing, Boyden chamber); type: cell-based, human; details: 300 nM, VEGF 10 ng/ml
Procedure: Endothelial cell (HUVEC) migration was monitored using the wound-healing assay described by Thaloor et al. (Cell Growth Differ. (1998) 9(4):305-12). Briefly, 3×10^4 cells/well were seeded in 24-well plates using M200 medium with LSGS. After cells had attached and formed a monolayer on plate completely, we scraped the cells with same width using yellow tip. After scraped, the cells were washed with PBS and incubated with the medium containing VEGF (10 ng/ml)) with or without LY5 (300 nM). Width was photographed at different time intervals (0 and 24 hours) with a magnification of 40× with a microscopic camera system (Leitz Diavert microscope, Leica, Bensheim; AxioCam, Carl Zeiss, Gottingen, Germany).
HUVECs were grown in M200 containing LSGS until 40-50% confluent. Cells were washed with PBS, trypsinized for 5-10 min, collected with 0.2% FBS and centrifuged at 300 g for 5 min. Cells were then resuspended with 0.2% FBS and counted using a Beckman Coulter Z2. A volume of 400 μl of this mix containing 5×10^5 cells was placed on to Boyden Chambers (8 μm pore) inserts with or without LY5 (300 nM) in 24 well plates with 500 μl of M200. VEGF (R and D Systems) in 1% BSA was added to a final concentration of 10 ng/ml in the lower chambers as a chemo-attractant. Cells were pretreated with antibody for 30 min in suspension, then placed in the chambers and incubated at 37° C. 5% C02 for 18-24 hrs. The Boyden chamber porous membranes were then blotted and fixed with 3.7% formaldehyde containing 0.05% crystal violet for 30 min. After repeated washes with distilled water the membranes were air-dried. […] The remainder of the cells on top of the membrane and within the Boyden chamber, were separately incubated in 80% methanol, shaken at 500 rpm for 30 min, and the extracted dye measured at 570 nm. Migration was quantified using the ratio of the migrated cells over the total cells (migrated plus remaining cells) to determine the fraction of migrating cells in each individual experiment. […]

OS-1 tumor xenografts = assay: OS-1 tumor xenografts; type: in vivo, mouse; details: 5 mg/kg via IP for 5 days
Procedure: In order to provide preliminary data regarding potential toxicities from dosing of LY5, C57BL/6 tumor-free mice were treated with daily intraperitoneal (IP) injections of LY5 at 5 or 10 mg/kg for 7 days. […] Additionally, LY5 at a dose of 5 mg/kg via IP for 5 days inhibited growth of OS-1 tumor xenografts (90% tumor volume compared to baseline), while tumor in vehicle treated mice continued to grow (143% tumor volume compared to baseline).

Question: Which “IL-6 induced STAT3 phosphorylation” value ([1]; DAOY, up to 5 μM, 2 h) does the source give for `NS(=O)(=O)c1cccc2c1C(=O)C=C(Nc1cccnc1)C2=O` [LY-5, 5,8-dioxo-6-(pyridin-3-ylamino)-5,8-dihydronaphthalene-1-sulfonamide] here?
Answer: inhibits; also recorded: blocked the stimulation

Question: And the “IL-6 induced STAT3 phosphorylation” value ([1]; DLD1, 0-5 μM, 2 h, IL-6 50 ng/mL)?
Answer: inhibits

Question: And the “IL-6 induced STAT3 phosphorylation” value ([1]; MCF-7, LY-3 0.5-2.5 μM, LY-5 0.25-1 μM, 5 h, IL-6 25 ng/mL)?
Answer: inhibit; also recorded: blocked the stimulation

Question: And the “IL-6 induced STAT3 phosphorylation at Y705” value ([1]; SJSA, 0-2.5 μM, 3 h)?
Answer: inhibits

Question: What about the “inhibition of STAT5” value (STAT5) of the same molecule?
Answer: exhibit inhibition

Question: What about the “VEGF induced HUVEC cell migration (wound width)” value (HUVEC) of the same molecule?
Answer: decreased cell migration

Question: What about the “percentage of migration (migrated cells over total cells)” value (HUVEC) of the same molecule?
Answer: decreased percentage of migration

Question: And the “VEGF induced HUVEC cell migration (wound width)” value (HUVEC; listed as LY5)?
Answer: significantly blocked

Question: What about the “tumor volume compared to baseline” value (OS-1 tumor xenografts) of the same molecule?
Answer: 90%
